We go through four compounds from patent US5578725A, “Delta opioid receptor antagonists” (priority 1995, dated 1996).

The conditions of data set [1]: K. Arakawa et al.; cited from earlier work.
In data set [2] the target is T1, δ opioid receptors (Mus musculus, UniProt P32300). Also noted: mouse vas deferens (MVD) preparations; from tissue; host or cells: mouse vas deferens, electrically stimulated. Particulars: MVD, DADLE; data from Korlipara et al.; 15 min; read-out: Ke; cited from earlier work.
Data set [3] deals with δ1 (Mus musculus, UniProt P32300). The settings on record: for ED50 Ratio (95% C.L.): ED50 with antagonist/control ED50, DPDPE i.c.v.
Another data set relates to rats. Particulars: compared to peptidyl delta-opioid receptor antagonists; Ser. No. 07/750,109; cited from earlier work.
In data set [4] the target is μ (Cavia porcellus, UniProt A0ACM8Q262). Particulars: data from Portoghese et al.; cited from earlier work.
The next data set has as its target μ opioid receptor (Cavia porcellus, UniProt A0ACM8Q262). Particulars: GPI, morphine, antagonist 100 nM.
Data set [5] has as its target T2, μ (Mus musculus, UniProt P42866).
T2 construct: male Swiss-Webster mice; from tissue; host or cells: living mouse (male Swiss-Webster)
Description: Tail-flick assay, antagonism of morphine (μ) antinociception. Format: in vivo, male Swiss-Webster mice. A general note: Thermal pain tests record how soon the animal reacts.

Data set [6] addresses T1, δ opioid receptors. Kind of data set: Antagonism of DADLE (δ) in electrically stimulated mouse vas deferens (MVD) preparation.
Data set [7] deals with δ1. Description: biochemical. Format: binding, guinea pig. As to the method: (§1) The opioid receptor affinities of the target compounds were determined on guinea pig membranes employing a modification of the method of Werling et al., J. Pharmacol. Exp. Ther., 233, 722 (1986).
Data set [8] concerns δ2. Kind of data set: biochemical. Format: binding, guinea pig. The settings on record: DSLET vs DPDPE. On the procedure: as §1
The target of data set [9] is T3, δ1 (Cavia porcellus, UniProt A0A286XTF2).
T3 construct: Guinea Pig Brain Membranes; from tissue; host or cells: guinea pig brain membranes
Kind of data set: biochemical. The data set is classed as binding, guinea pig. Particulars: relative to NTI. As to the method:
as §1

In data set [10] the target is T4, δ2 (Mus musculus, UniProt P32300).
T4 construct: male Swiss-Webster mice; from tissue; host or cells: living mouse (male Swiss-Webster)
Kind of data set: Tail-flick assay, antagonism of DSLET (δ2) antinociception. Format: in vivo, male Swiss-Webster mice.

For the next data set, the target named is κ opioid receptor (Cavia porcellus, UniProt P41144). Particulars: GPI, ethylketazocine, antagonist 100 nM.
Data set [11] has as its target T5, κ (Mus musculus, UniProt P33534).
T5 construct: male Swiss-Webster mice; from tissue; host or cells: living mouse (male Swiss-Webster)
Format: in vivo, male Swiss-Webster mice.

In data set [12] the target is T6, κ (Cavia porcellus, UniProt P41144).
T6 construct: Guinea Pig Brain Membranes; from tissue; host or cells: guinea pig brain membranes
Description: Binding to κ sites, competition with [3H]U69593, guinea pig brain membranes. The settings on record: geometric mean of three replicates. On the procedure: as §1

For data set [13] the following is noted: compared with 2 or 3; cited from earlier work.
Data set [14] deals with δ2. Particulars: Jiang et al.; Korlipara et al.; cited from earlier work.

“And” between values parts separate entries of the source, which are not always exact repeats. Equal entries are not always repeated. Structures can show the parent of a compound that is named as a salt. Where two headings read alike, the source gives them in different places.

The term Ki denotes the dissociation constant of the complex between target and ligand, obtained from inhibition or displacement. Regarding `Oc1ccc2c3c1O[C@H]1c4[nH]c5ccccc5c4C[C@@]4(O)[C@@H](C2)N(CC2CC2)CC[C@]314` [Compound 1, naltrindole], the “immunosuppressive activity (in words)” value in data set [1] is “potent immunosuppressive activity”. On δ opioid receptors [2], the Kb was 0.2 nM. The “Dose required to double the ED50 of DPDPE, i.c.v.” value on δ1 [3] (mouse, in vivo) was determined as 0.3 nmol/kg. For the same compound, on δ1 [3] (mouse, in vivo, iv), the “Dose required to double the ED50 of DPDPE, i.v.” value was 2.19 µmol/kg and the “penetration into the CNS (in words)” value was “penetrates the CNS more readily than the conjugates”. Further, the “suppression of ethanol drinking (in words)” value in the data set with rats is recorded as “unexpectedly prolonged suppression of ethanol drinking”. The inhibitory constant (Ki) at μ [4] is 3.8 nM.

On to `O=C(O)CNC(=O)c1cccc2c3c([nH]c12)[C@@H]1Oc2c(O)ccc4c2[C@@]12CCN(CC1CC1)[C@H](C4)[C@]2(O)C3` [Compound 2, 7'-(Carboxamidoglycine)-17-(cyclopropylmethyl)-6,7-dehydro-3,14-dihydroxy-4,5α-epoxy-6,7,2',3'-indolomorphinan hydrochloride], for which the “IC50 ratio M(μ)” value on μ opioid receptor worked out at 1.5 ± 0.1. Moreover, the “ED50 Ratio (95% C.L.)” value at μ [5] (ED50 with antagonist/control ED50, morphine s.c., antagonist 20 pmol/kg i.c.v.) is 0.9 (0.8-1.1); at δ1 [3] (antagonist 20 pmol/kg i.c.v.), 5.3 (3.6-7.7); on δ1 [3] (antagonist 0.9 μmol/kg i.v.) it was 2.7 (1.9-4.0); at δ2 [10] (ED50 with antagonist/control ED50, DSLET i.c.v., antagonist 20 pmol/kg i.c.v.), 1.1 (0.8-1.6); at κ [11] (mouse, in vivo) it was 0.8 (0.7-0.9). Besides, the “antagonism of morphine antinociception (in words)” value on μ [5] (mice) is reported as “No significant antagonism”. At δ1 [3] (central (i.c.v.) vs peripheral (i.v.)), the “antagonist potency, central vs peripheral delivery (in words)” value was “highly potent δ opioid antagonists when administered centrally, and many orders of magnitude less potent when delivered by the peripheral route”. Besides, the “Dose required to double the ED50 of DPDPE, i.c.v.” value on δ1 [3] (i.c.v., antagonist dose/(ED50 ratio - 1)) was determined as 0.0047 nmol/kg. Besides, the “antagonism of DPDPE antinociception (in words)” value at δ1 [3] (i.v. or i.c.v., mice) is “effectively antagonized the antinociceptive effect of the δ1 agonist, DPDPE”. Moreover, the “Dose required to double the ED50 of DPDPE, i.v.” value on δ1 [3] (i.v., antagonist dose/(ED50 ratio - 1)) came out at 0.53 µmol/kg. In addition, the “in vivo δ subtype selectivity (in words)” value at δ1 [3] (mouse, in vivo) was “antagonized the δ1 agonist, DPDPE, but not the δ2 agonist, DSLET”. For the same compound, on δ1 [3] (relative to NTI), the “i.v./i.c.v. dose ratio relative to that of NTI (times greater)” value is reported as 15. For the same compound, the Kb on δ opioid receptors [6] (Ke (nM), MVD, DADLE, Ke = [antagonist]/(IC50 ratio - 1), antagonist 100 nM) is 3.2 nM and 1 to 5 nM. Besides, the “IC50 Selectivity Ratio δ/κ” value at δ opioid receptors [6] (MVD DADLE IC50 ratio / GPI EK IC50 ratio) worked out at 30. Besides, the “IC50 Selectivity Ratio δ/μ” value at δ opioid receptors [6] (MVD DADLE IC50 ratio / GPI morphine IC50 ratio) is on record as 21. In addition, on δ opioid receptors [6] (MVD, antagonist 100 nM, 15 min preincubation), the “IC50 ratio DADLE(δ)” value came to 32 ± 8. The “Ki Selectivity Ratio δ1/δ2” value in the data set with δ1 [7] (Ki δ1 / Ki δ2) is 8.2. In addition, the “preference between δ1 and δ2 putative binding sites (in words)” value in the data set with δ1 [7] ([3H]DPDPE vs [3H]DSLET) was “greater affinity for δ2 relative to δ1 putative binding sites”. Moreover, the “factor by which compound competed more effectively with [3H]DSLET than with [3H]DPDPE for δ sites” value in the data set with δ2 [8] is listed as 8-10. In addition, the “affinity for δ1 sites relative to NTI (times greater)” value on δ1 [9] was 2 times. In addition, at δ2 [10] (mice), the “antagonism of DSLET antinociception (in words)” value was “No significant antagonism”. Besides, the “IC50 ratio EK (κ)” value on κ opioid receptor was determined as 1.1 ± 0.2. The “antagonism of U50488 antinociception (in words)” value at κ [11] (mice) is reported as “No significant antagonism”. At κ [12], this compound registered an inhibition constant Ki of 162 nM.

Take `Oc1ccc2c3c1OC1c4c(c5ccccc5n4Cc4ccccc4)CC4(O)C(C2)N(CC2CC2)CCC314` (stereo not shown) [benzylnaltrindole]: in data set [13], the “lipophilicity (in words)” value is on record as “considerably more lipophilic than 2 or 3”. Moreover, in the data set with δ2 [14], the “in vivo δ subtype selectivity (in words)” value is listed as “δ2 -selective antagonists”.

In the case of `Oc1ccc2c3c1O[C@H]1c4oc5ccccc5c4C[C@@]4(O)[C@@H](C2)N(CC2CC2)CC[C@]314` [naltriben (NTB), naltriben], the “suppression of ethanol drinking (in words)” value in the data set on rats was “unexpectedly prolonged suppression of ethanol drinking”. Besides, the “lipophilicity (in words)” value in data set [13] was “considerably more lipophilic than 2 or 3”. In the data set with δ2 [14], the “in vivo δ subtype selectivity (in words)” value is on record as “δ2 -selective antagonists”.
